Experimental findings from US20050055748A1, “Stress-responsive genes, regulatory elements, and methods of use for same” (priority 2003, published 2005) are described below.

Each structure is given as a SMILES string. “Also recorded” adds a separate entry of the source.

Holding throughout (format): cell-based, Zea mays
One test relates to Hi-II maize cells. The test is described as follows: Growth of Hi-II maize callus cells on media containing sucrose and raffinose, with or without dehydration stress. As to conditions: for Relative weight gain, Dehydration stressed: dried in a flowhood for 4 h; for Relative weight gain, Dehydration stressed / Relative weight gain, Control: increase in weight relative to initial weight, means of three replicates; for Relative weight gain, Control: no dehydration stress. The method, then:
Table 1. Growth of Hi-II maize cells in culture on media containing sucrose and raffinose. Hi-II cells were weighed, cultured on different media for 4 d, transferred to N6 medium, cultured for another 7 d, and re-weighed. For dehydration stress, Hi-II cells were weighed, cultured on different media for […] , dried in a flowhood for 4 h, subsampled for water content, returned to the initial media for 1 d, transferred to N6 medium, cultured for 7 days, and re-weighed. Growth rates (increase in weight relative to initial weight) and water contents (dry weight basis) are the means of three replicates. Analysis of variance and mean separations were calculated among media within a dehydration stress treatment.
(§1) Maize Hi-II callus cultures were initiated according to Armstrong and Green (1985) from immature embryos isolated from Hi-II maize plants provided by Pioneer. Cultures were incubated in the dark at 25° C. on solid N6 medium containing 2% (w/v) sucrose (Chu et al., 1975) amended with 2 mg/L 2,4-dichlorophenoxyacetic acid, 25 mmol/L L-proline, and 10 μmol/L AgNO3, pH 5.8 (N6S2 medium) and sub-cultured every two weeks onto fresh media. For experimental treatments, approximately 2 g of cells (fresh weight) were added to each 100×15 mm plate. To determine the effect of various sugars and environmental stresses on the expression of ZmGOLS and ZmRAFS genes in maize Hi-II callus cells, callus was cultured on N6 media supplemented with different concentrations of sugars and: a) grown at 25° C. in the dark (control conditions); b) exposed to 42° C. for 24 h (heated); c) exposed to 4° C. for 24 h (chilled); or d) exposed to a current of air at 25° C. in a laminar flow hood for 4 h (dehydrated). To determine the responsiveness of ZmGOLS and ZmRAFS genes to exogenous ABA, calli were grown on media with 1, 10, and 100 μM cis, trans-ABA (Sigma) under control conditions for 1 d prior to harvest and RNA extraction.
Samples of Hi-II cells growing on N6S2 were weighed and placed on N6S2, N6S5, or N6S5 supplemented with 0.1% w/v raffinose. Callus was grown for 4 d at 25° C. on these various media. The callus on a particular medium was separated into two equal sub-samples and the fresh weight obtained. A sub-sample of half of the callus cells per plate for each medium was subjected to dehydration stress by removal from the medium and exposure to a current of air in a flow hood for 4 h. The remaining half of the callus cells were not exposed to stress. After 4 h dehydration stress the callus was placed back on its respective medium for an additional 22 h. Previously stressed and non-stressed calli were then transferred to N6S2 for one week. At the end of the week the calli were weighed again to determine how much growth had occurred during the week. The growth of the cells was expressed as the increase in fresh weight after one week of growth on N6S2 relative to the callus fresh weight 7 days earlier (Dennehey et al.; 1994). This experiment was repeated 3 times.

The subject of the next test is ZmRAFS1. The test can be described thus: ZmRAFS1 gene expression in maize Hi-II callus (northern blot). The settings on record: for ZmRAFS1 expression, effect of raffinose or galactose: 4% sucrose plus raffinose (0.01-1%) or 0.33% galactose, 42° C. for 1 d (FIG. 8C); for ZmRAFS1 mRNA accumulation with myo-inositol or mannitol in the media (FIG. 8A): 2% sucrose plus 0.01% myo-inositol or 7.8% mannitol, control, dehydrated, 4 or 42° C. How it is done: as §1
(§2) Sucrose and raffinose amounts in N6 media were altered, singly for sucrose or in combination with raffinose, to determine if RAFS substrates or the final product of the coordinate action of GOLS and RAFS influenced ZmGOLS and ZmRAFS gene expression. Because it is not known whether sucrose or raffinose are taken up into Hi-II cells directly or if they are hydrolyzed prior to uptake, glucose, fructose, galactose, and melibiose were also supplied. Myo-inositol (1,2,3,5-trans-4,6-hexahydroxy cyclohexane, Sigma), a GOLS substrate, was added to N6S2 media at amounts from 0.01-1% w/v. To determine if gene expression was regulated by osmotic stress, N6S2 media was amended with 0.1% to 7.8% w/v mannitol. Callus cells were also grown on N6 with combinations of sugars and the myo-inositol isomer, scyllo-inositol. All chemicals were sterilized by filtration and added to autoclaved media cooled to 65° C. just prior to pouring the plates. Hi-II callus cells on these various media were maintained under control conditions or subjected to stress (see above) prior to being harvested for sugar or RNA extraction or moisture content analysis. Cells were transferred to amended N6 media for 8 days, the environmental stress (if any) applied, and the cells harvested.
(§3) Total RNA from seeds, regardless of treatment, was extracted according to Wan and Wilkins (1994). Total RNA (20 μg per lane) from seeds was transferred onto positively charged nylon membranes (Amersham Life Science Inc., Arlington Heights, Ill., USA) in 10×SSC (1×SSC is 150 mM NaCl and 15 mM Na citrate pH 7) overnight, the blot dried and UV cross-linked at 50 mJoules on a GS genelinker UV chamber (Bio-Rad Laboratories, Hercules, Calif., USA). After rinsing the membranes for 5 min in 2×SSC, blots were placed in pre-hybridization solution (50% formamide, 5× Denhardt's solution (Denhardt 1966), 100 μg ml^−1 boiled, sheared salmon sperm DNA, 0.2% SDS, 6×SSC pH 7.0, Sambrook et al. 1989) for 4-6 h at 42° C. Randomly labeled, radioactive cDNA probes ([^32P] dCTP) were hybridized to the blots for at least 12 h at the same temperature as pre-hybridization. The primary wash was done in 2×SSC, 0.1% SDS, RT for 5 min, and repeated but at 65° C. for 30 min. The two final high stringency washes were in 0.2×SSC, 0.1% SDS at 65° C. for 30 min each. The hybridized probe was detected by autoradiography using Kodak X-OMAT X-ray film (Eastman-Kodak Ltd.) or on a phosphoimaging screen using a Phosphorlmager (Molecular Dynamics).

For a further test, the system named is ZmGOLS2. The test can be described thus: ZmGOLS2 gene expression in maize Hi-II callus (northern blot, RPA). As to conditions: for ZmGOLS2 mRNA in stressed callus (FIG. 7A): 2% sucrose plus 0.01% myo-inositol or 7.8% mannitol, dehydration 4 h or heat 42° C. 24 h. How it is done:
as §1, §2, §3
The high degree of sequence homology among ZmGOLS genes prompted verification of results from northern blot analysis using RPAs (RPA III, Ambion, Little Rock, Tex., USA). […]

Where [1] appears, read: unstressed cells on N6+2% (w/v) sucrose, 1, 10, 100 μM ABA, 1 d.

On to `OC[C@H]1O[C@@](CO)(O[C@H]2O[C@H](CO)[C@@H](O)[C@H](O)[C@H]2O)[C@@H](O)[C@@H]1O` [2% sucrose, sucrose], for which, in the test on Hi-II maize cells, the “Relative weight gain, Dehydration stressed” value was determined as 1.35 ± 0.16 b and the “Relative weight gain, Control” value was found to be 1.89 ± 0.17 a.
As to `OC[C@H]1O[C@@](CO)(O[C@H]2O[C@H](CO)[C@@H](O)[C@H](O)[C@H]2O)[C@@H](O)[C@@H]1O` [5% sucrose, sucrose], in the test on Hi-II maize cells, the “Relative weight gain, Dehydration stressed” value stood at 1.37 ± 0.02 b and the “Relative weight gain, Control” value worked out at 1.45 ± 0.04 b.
With `CC1=CC(=O)CC(C)(C)[C@@]1(O)/C=C/C(C)=C\C(=O)O` [ABA, abscisic acid], the “ZmRAFS1 gene expression in response to applied ABA” value with ZmRAFS1 (setting [1]) is given as “not induced beyond that of 2% sucrose alone”. Also, the “ZmGOLS2 gene expression in response to applied ABA” value with ZmGOLS2 (setting [1]) is on record as “not responsive to ABA”.
As to `O=C[C@H](O)[C@@H](O)[C@@H](O)[C@H](O)CO` [galactose], the “ZmRAFS1 expression, effect of raffinose or galactose” value in the test on ZmRAFS1 is “as effective as raffinose at repressing ZmRAFS1 expression at equal galactose molarities”.
Turning to `OC[C@@H](O)[C@@H](O)[C@H](O)[C@H](O)CO` [mannitol], the “ZmRAFS1 mRNA accumulation with myo-inositol or mannitol in the media (FIG. 8A)” value in the test with ZmRAFS1 is listed as “did not influence ZmRAFS1 gene expression”. Further, in the test on ZmGOLS2, the “ZmGOLS2 mRNA in stressed callus (FIG. 7A)” value is given as “upregulated ZmGOLS2 gene expression when subjected to dehydration but not to heat stress”. In addition, in the test with ZmGOLS2 (dehydrated cells, 0.1-0.5% w/v), the “ZmGOLS2 transcription, low mannitol” value is “repressed ZmGOLS2 transcription below that present in cells grown on 2% sucrose alone”. Also, the “ZmGOLS2 transcription, very high mannitol” value in the test on ZmGOLS2 (dehydrated cells, 7.8% w/v) is reported as “upregulated ZmGOLS2 transcription”.
For the molecule `O[C@H]1[C@H](O)[C@@H](O)[C@H](O)[C@@H](O)[C@H]1O` [myo-inositol, 1,2,3,5-trans-4,6-hexahydroxy cyclohexane], in the test with ZmRAFS1, the “ZmRAFS1 mRNA accumulation with myo-inositol or mannitol in the media (FIG. 8A)” value is recorded as “did not elicit greater ZmRAFS1 mRNA accumulation with the exception of cells exposed to heat shock”. In the test with ZmGOLS2, the “ZmGOLS2 mRNA in stressed callus (FIG. 7A)” value is listed as “ZmGOLS2 mRNA accumulation”. The “ZmGOLS2 transcription, low myo-inositol” value in the test with ZmGOLS2 (dehydrated cells, 2% sucrose, 0.01-0.1% w/v) is listed as “upregulated ZmGOLS2 transcription”. In addition, the “ZmGOLS2 transcription, high myo-inositol” value in the test with ZmGOLS2 (dehydrated cells, 2% sucrose, 1% w/v) was “repressed ZmGOLS2 transcription below that on 2% sucrose alone”.
For `OC[C@H]1O[C@H](OC[C@H]2O[C@H](O[C@]3(CO)O[C@H](CO)[C@@H](O)[C@@H]3O)[C@H](O)[C@@H](O)[C@@H]2O)[C@H](O)[C@@H](O)[C@H]1O` [raffinose], in the test on ZmRAFS1, the “ZmRAFS1 expression, effect of raffinose or galactose” value is recorded as “may inhibit the expression of ZmRAFS1 upon attaining a sufficient concentration”. Further, in the test with Hi-II maize cells (0.1% raffinose in medium with 5% sucrose, unstressed), the callus mass accumulation is recorded as “prevented the detrimental effect of high sucrose on callus mass accumulation”. Further, the “callus growth following dehydration stress” value with Hi-II maize cells (0.1% w/v raffinose with 5% sucrose, 4 h dehydration) is listed as “grew as well as callus that had not been subjected to dehydration; also recorded: capable of alleviating dehydration-induced damage”.
`O[C@H]1[C@H](O)[C@@H](O)[C@H](O)[C@@H](O)[C@@H]1O` [scyllo-inositol]: the “ZmGOLS2 expression, low scyllo-inositol with high mannitol” value in the test on ZmGOLS2 (dehydrated cells, 2% sucrose (FIG. 7C)) is “did not alter the expression of ZmGOLS2 relative to similar concentrations of myo-inositol and mannitol”.
In the case of `OC[C@H]1O[C@@](CO)(O[C@H]2O[C@H](CO)[C@@H](O)[C@H](O)[C@H]2O)[C@@H](O)[C@@H]1O` [sucrose], in the test on ZmRAFS1 (heat-stressed callus, 2% (w/v) or greater sucrose (FIG. 8B, 8C)), the “ZmRAFS1 gene expression, effect of sucrose and its monosaccharides” value is recorded as “up-regulated by sucrose”.
